Measurements from US20070066601A1, “Combination of a serotonin reuptake inhibitor and a histamine 3 receptor antagonist, inverse agonist or partial agonist” (H. LUNDBECK A/S, priority 2003, published 2007).

What was measured:
cortex synaptosomes = settings: cited from earlier work
[1] = system: serotonin levels in ventral hippocampus; test: Microdialysis of brain serotonin levels in rats; format: in vivo, rat; settings: for effect on 5-HT levels when compared to citalopram administration alone: P<0.0001
Protocol: Male albino rats of a Wistar-derived strain (285-320 g; Harlan, Zeist, The Netherlands) were used for the experiments. Upon surgery, rats were housed individually in plastic cages (35×35×40 cm), and had free access to food and water. Animals were kept on a 12 h light schedule (light on 7:00 a.m.). The experiments are concordant with the declarations of Helsinki and were approved by the animal care committee of the faculty of mathematics and natural science of the University of Groningen.
Microdialysis of brain serotonin levels was performed using home made I-shaped probes, made of polyacrylonitrile/sodium methyl sulfonate copolymer dialysis fiber (i.d. 220 μm, o.d. 300 μm, AN 69, Hospal, Italy). Preceding surgery rats were anaesthetised using isoflurane (O2/N2O; 300/300 ml/min). Lidocaine-HCl, 10 % (m/v) was used for local anaesthesia. Rats were placed in a stereotaxic frame (Kopf, USA), and probes were inserted into Ventral Hippcampus (V. Hippo, L +4.8 mm, […], V: −8.0 mm) and median prefrontal cortex (PFC, L −0.9 mm; AP: +3.5 mm relative to bregma; V: −6.0 mm (Paxinos and Watson, 1982). After insertion, probes were secured with dental cement.
Rats were allowed to recover for at least 24 h. Probes were perfused with artificial cerebrospinal fluid containing 147 mM NaCl, 3.0 mM KCl, 1.2 mM CaCl2, and 1.2 mM MgCl2, at a flow-rate of 1.5 μl/min (Harvard apparatus, South Natick, Mass., USA). 15 minute microdialysis samples were collected in HPLC vials containing 7.5 μl 0.02 M acetic acid for serotonin analysis.
Twenty-μl microdialysate samples were injected via an autoinjector (CMA/200 refrigerated microsampler, CMA, Sweden) onto a 100×2.0 mm C18 Hypersil 3 μm column (Bester, Amstelveen, the Netherlands) and separated with a mobile phase consisting of 5 g/L di-ammoniumsulfate, 500 mg/L EDTA, 50 mg/L heptane sulphonic acid, 4% methanol v/v, and 30 μI/L of triethylamine, pH 4.65 at a flow of 0.4 ml/min (Shimadzu LC-10 AD). 5-HT was detected amperometrically at a glassy carbon electrode at 500 mV vs Ag/AgCl (Antec Leyden, Leiden, The Netherlands). The detection limit was 0.5 fmol 5-HT per 20 μl sample (signal to noise ratio 3).
Four consecutive microdialysis samples with less then 20% variation were taken as control and set at 100%. Data are presented as percentages of control level (mean±S.E.M.) in time. Statistical analysis was performed using Sigmastat for Windows (SPSS, Jandel Corporation). Treatments were compared versus controls using two way analysis of variance (ANOVA) for repeated measurements, followed by Student Newman Keuls test. Level of significance level was set at p<0.05.

## C[C@@H](N)Cc1cnc[nH]1 [R-(alphe)-methylhistamine]
Cortex synaptosomes
  effect on electrical evoked release of tritiated serotonin: inhibited

## O=C(c1ccc(OCCCc2cnc[nH]2)cc1)C1CC1 [ciproxifan, Ciproxifan]
[1]; ciproxifan alone, 15 mg/kg s.c., P=0.54 n.s.
  effects on serotonin levels in ventral hippocampus: did not induce any effects
[1]; co-administration of citalopram 10 μmol/kg with ciproxifan 15 mg/kg s.c.
  effect on 5-HT levels when compared to citalopram administration alone: augmented effect

## S=C(NC1CCCCC1)N1CCC(c2cnc[nH]2)CC1 [thioperamide, Thioperamide]
[1]; co-administration of citalopram 10 μmol/kg with thioperamide 5 mg/kg s.c.
  effect on 5-HT levels when compared to citalopram administration alone: augmented effect
[1]; thioperamide alone, 5 mg/kg s.c., P=0.44 n.s.
  effects on serotonin levels in ventral hippocampus: did not induce any effects
Cortex synaptosomes
  effect on the inhibition of evoked serotonin release by R-(alphe)-methylhistamine: reversed
